The source of these data is patent US20210130473A1, “TGFßR1 INHIBITOR-ASGR ANTIBODY CONJUGATES AND USES THEREOF” (Silverback Therapeutics, Inc., priority 2019, published 2021).

Assay [1] has as its target T1, ALK5 (Homo sapiens, UniProt P36897).
T1 construct: purchased Reaction Biology Corp (Malvern, Pa.)
T1 sequence (P36897 34-503): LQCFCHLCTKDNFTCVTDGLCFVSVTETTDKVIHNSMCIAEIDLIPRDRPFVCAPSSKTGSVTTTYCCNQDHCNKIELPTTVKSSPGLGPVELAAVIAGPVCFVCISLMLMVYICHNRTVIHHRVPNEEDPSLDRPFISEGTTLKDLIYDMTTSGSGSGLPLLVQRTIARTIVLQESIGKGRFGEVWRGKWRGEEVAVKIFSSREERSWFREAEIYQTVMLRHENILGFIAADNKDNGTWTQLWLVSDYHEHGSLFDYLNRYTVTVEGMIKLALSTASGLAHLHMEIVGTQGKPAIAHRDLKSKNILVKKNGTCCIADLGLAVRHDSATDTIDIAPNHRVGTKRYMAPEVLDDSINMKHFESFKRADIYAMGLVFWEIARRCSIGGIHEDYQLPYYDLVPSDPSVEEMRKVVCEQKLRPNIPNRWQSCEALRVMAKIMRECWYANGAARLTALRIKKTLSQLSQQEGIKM
Description: ALK5 enzyme inhibition assay (casein substrate, 10 uM ATP, 33P-ATP, filter-binding; Reaction Biology Corp). It is filed as biochemical. As to conditions: Table 11. An outline of the steps: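 Kinase reaction with casein (1 mg/mL) and 10 uM ATP; compounds in DMSO preincubated with kinase 20 min at room temperature, then 33P-ATP added and reacted 2 h at room temperature. Filter-binding radioactivity read-out as percent remaining activity versus DMSO vehicle; IC50 from curve fits.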

For assay [2], the system named is TGFβ/SMAD Signaling Pathway SBE reporter cell line. Briefly: TGFb reporter assay in HEK293 SBE-LUC reporter cells (luciferase). The format is cell-based. As to conditions: Homo sapiens, key of the table says IC50, read-out: EC50 (the source's name). Put shortly: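 HEK293 SBE-luciferase reporter cells in MEM with 0.5% FBS were pretreated with compound for 5–6 h at 37 °C, then stimulated with TGFb (12.5 ng/mL stock added) for 18 h. Luminescence was read after luciferase substrate addition.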
For orientation: Reporter assays use an easily measured gene product as a stand-in for the process of interest.

The subject of assay [3] is HEK293 SBE-LUC reporter cells transfected to stably express full length human ASGR1. Briefly: Cell reporter assay of anti-ASGR1-ALK5 inhibitor conjugates: TGFβ1-mediated luciferase expression. Particulars: inhibition of TGFβ1-mediated luciferase expression, 6 h preincubation, human TGFβ1 1.6 ng/ml, further 18 h. It is filed as cell-based. As for the experimental part:
Anti-ASGR1 antibodies conjugated to an ALK5 inhibitor were tested via a cell reporter assay. Briefly, HEK293 SBE-LUC reporter cells transfected to stably express full length human ASGR1 were seeded in 96 well plates at 40,000 cells/well in an assay media of minimum essential media containing 0.5% fetal bovine serum, 1% nonessential amino acids, 1% sodium pyruvate and 1% Pen/Strep. Anti-ASGR1-ALK5 inhibitor conjugates and controls were added to wells in a dose titration ranging from 5 μM to 0.064 nM to HEK293 SBE-LUC and ASGR1-HEK293 SBE-LUC cells. After incubating for 6 hours at 37° C. in a 5% CO2 environment, human TGFβ 1 (PeproTech Inc.) was added to a final concentration of 1.6 ng/ml followed by an additional 18 hour incubation under the same conditions. Luciferase STEADY-GLO® reagent (Promega Corporation) was added at 70 μl/well and incubated with shaking for 10 minutes. Luciferase activity was determined by measuring luminescence with an ENVISION® Plate Reader (Perkin-Elmer Inc.). Data were fit with a four-parameter non-linear regression to calculate IC50 values using Prism Software v7.04 (GraphPad Inc.).

Turning to `Cc1cccc(-c2nc(CNCc3ccccc3C3CCCC3)[nH]c2-c2ccc3ncnn3c2)n1` [Compound 44], the IC50 in assay [1] is 100 to 1000 nM; in assay [2] it was 10 to 100 nM.
For `Cc1cccc(-c2nc(CNCCc3c(F)cccc3F)[nH]c2-c2ccc3nccnc3c2)n1` [Compound 82], in that order: 0.1 to 50 nM and 0.1 to 10 nM.
For the compound `Cc1cccc(-c2nc(CNCCc3c(F)cccc3F)[nH]c2-c2ccc3ncnn3c2)n1` [Compound 60], the IC50 in assay [3] was 13.4 nM; in assay [1], 0.1 to 50 nM; in assay [2] it was 0.1 to 10 nM.
As to `Cc1cccc(-c2nc(CNCCN(C)c3ccccc3)[nH]c2-c2ccc3nccnc3c2)n1` [Compound 88], the IC50 was in the range of 0.1 to 50 nM in assay [1] and 0.1 to 10 nM in assay [2].
Taken in the same sequence, the figures for `Cc1cccc(-c2nc(CNCc3ccccc3)[nH]c2-c2ccc3ncccc3c2)n1` [Compound 90] were 50 to 100 nM and 0.1 to 10 nM.
Taken in the same sequence, the figures for `Cc1cccc(-c2nc(CNCCN(C)c3ccccc3)[nH]c2-c2ccc3ncnn3c2)n1` [Compound 67] were 50 to 100 nM and 0.1 to 10 nM.
Taken in the same sequence, the figures for `Cc1cccc(-c2nc(CNCc3cccc(C)c3-c3ccccc3)[nH]c2-c2ccc3ncnn3c2)n1` [Compound 48] were 0.1 to 50 nM and 10 to 100 nM.
Regarding `Cc1cccc(-c2nc(CNCc3ccccc3-c3cccc(F)c3)[nH]c2-c2ccc3ncnn3c2)n1` [Compound 37], the results for the IC50 in assay [1] and in assay [2] were 50 to 100 nM and 10 to 100 nM, respectively.
For `Cc1cccc(-c2nc(CNCc3ccccc3-c3ccccc3)[nH]c2-c2ccnc3ccccc23)n1` [Compound 69], in that order: 100 to 1000 nM and 100 to 1000 nM.
For `Cc1cccc(-c2nc(CNCc3ccccc3-c3ccc(F)c(F)c3)[nH]c2-c2ccc3ncnn3c2)n1` [Compound 36], in that order: 50 to 100 nM and 10 to 100 nM.
